System: UBE2L3-KRAS fusion protein
Experiment: Western blot of UBE2L3-KRAS fusion protein with or without bortezomib
Assay type: cell-based, human
Protocol: The prostate cancer cell lines DU145 were transfected with siRNA duplex (Dharmacon, Lafayette, Colo., USA) against UBE2L3 (5′-CCACCGAAGATCACATTTA-3′; SEQ ID NO:1), KRAS (5′-GAAGTTATGGAATTCCTTT-3′; SEQ ID NO:2) or the fusion junction (5′-CCGACCAAGGCCTGCTGAA-3′; SEQ ID NO:3) by oligofectamine (Invitrogen). DU145 transfected with non-targeting siRNA and RWPE cells was used as negative control. Post 48 hours transfection, cells were homogenized in NP40 lysis buffer (50 mM Tris-HCl, 1% NP40, pH 7.4, Sigma, St. Louis, Mo.), and complete proteinase inhibitor mixture (Roche, Indianapolis, Ind.). Ten micrograms of each protein extract were boiled in sample buffer, separated by SDS-PAGE, and transferred onto Polyvinylidene Difluoride membrane (GE Healthcare, Piscataway, N.J.). The membrane was incubated for one hour in blocking buffer [Tris-buffered saline, 0.1% Tween (TBS-T), 5% nonfat dry milk] and incubated overnight at 4° C. with the following antibodies: anti-RAS mouse monoclonal (1:1000 in blocking buffer, Millipore Cat #: 05-516), anti-KRAS rabbit polyclonal (1:1000, Proteintech Group Inc., Cat #: 12063-1-AP) and anti-beta Actin mouse monoclonal (1:5000, Sigma Cat #: A5441) antibodies. Following three washes with TBS-T, the blot was incubated with horseradish peroxidase-conjugated secondary antibody and the signals visualized by enhanced chemiluminescence system as described by the manufacturer (GE Healthcare). To test fusion protein expression in multiple prostate derived cell lines, lysates from DU145, PrEC, RWPE, 22RV1, VCaP, PC3 either untreated or treated with 500 nM bortezomib for 12 hours were used. Bortezomib treated HEK cells over-expressing UBE2L3-KRAS fusion protein was used as a positive control. […] For ERK activation analysis NIH 3T3 cells were starved for 12 hours before immunoblot analysis using phospho erk1/2 antibody. All antibodies for the MAPK signaling proteins were purchased from Cell Signaling Technologies.

Q: Which results are given for `CC(C)C[C@H](NC(=O)[C@H](Cc1ccccc1)NC(=O)c1cnccn1)B(O)O` [bortezomib]?
A: levels of UBE2L3-KRAS protein expression (DU145 cells incubated with bortezomib): enhanced; expression of the UBE2L3-KRAS fusion protein (HEK293 cells over-expressing UBE2L3-KRAS construct, in the presence of bortezomib): clearly apparent; expression of the UBE2L3-KRAS fusion protein (RWPE cells overexpressing UBE2L3-KRAS): required

— patent US9926602B2, “Recurrent gene fusions in prostate cancer” (THE REGENTS OF THE UNIVERSITY OF MICHIGAN, priority 2009, dated 2018)
